Reference: patent US20150065440A1 (Progen Pharmaceuticals Limited, priority 2007, published 2015)

Legend:
RSV = assay: Anti-RSV screening assay (viral plaques); format: cell-based; conditions: 100 μg/mL, viral plaques relative to mock treated controls
Protocol: (§1) African green monkey kidney (GMK AH1) cells^46 were cultured in Eagle's minimum essential medium (EMEM) supplemented with 2% calf serum, 0.05% Primaton RL substance (Kraft Inc., Norwich, USA) and antibiotics. Human epidermoid carcinoma (HEp-2) cells were cultured in Dulbecco's modified EMEM (DMEM) supplemented with 10% fetal calf serum and antibiotics. […] The RSV strain A-2^50 was used. The RSV stock was prepared as described by Hallak et al.^51 and stored at −70° C. in the presence of 40% sucrose^52.
(§2) The viral infectivity (the plaque number-reduction) assay and the plaque size-reduction assay were carried out as described previously^17. […] Subsequently, the cells were washed with 2 mL of EMEM and overlaid with 1% methylcellulose solution in EMEM. The plaques were visualized by staining with crystal violet solution after 2 (HSV-2) or 3 (HSV-1) days of incubation at 37° C. […] When the compounds were screened for anti-HSV or anti-RSV activity, mixtures of 200 PFU of the virus and the test compound (100 μg/mL) in serum-free EMEM were incubated for 10 min at room temperature before addition to cells and during the entire period of viral infection of cells and the development of viral plaques. In the plaque size-reduction assay, the compounds were added to cells (in methylcellulose overlay medium) after 2 h period of virus infection of cells in the absence of the inhibitor. After 2-3 days of incubation at 37° C., the viral plaques were visualized by staining the cells with 1% solution of crystal violet. For each compound tested, the images of twenty neighboring plaques were captured using a Leica DC300 digital camera attached to a Leitz-Wetzlar Diavert microscope. The area of each plaque was determined using IM500 image software (Leica). Similar protocols were used for RSV, except that the assays were performed in HEp-2 cells and DMEM supplemented with 2% heat-inactivated fetal calf serum was used instead of EMEM.

HSV-2 [1] = assay: Anti-HSV screening assay (viral plaques), HSV-2; format: cell-based; conditions: 100 μg/mL, viral plaques relative to mock treated controls
Protocol: as §1, §2

GMK AH1 cells = assay: Cytotoxicity assay, GMK AH1; format: cell-based, African green monkey; conditions: cell viability reduced by 50%
Protocol: The assay was performed in GMK AH1 cells that had been seeded in 96 well cluster plates and reached approximately 80-90% confluence at day 2 of culture. The cells were washed with EMEM and incubated for 24 h at 37° C. with 100 μL of serial two-fold dilutions of the test compound in serum-free EMEM. The effect of the test compound on cell viability was measured by using the tetrazolium-based CellTiter96 assay according to the manufacturer's protocol (Promega, Madison, Wis., USA).

HSV-1 = assay: Virus inactivation assay, HSV-1; format: cell-based; conditions: 15 min at 37° C.
Protocol: (§3) Approximately 10^5 plaque-forming units of HSV-1 KOS321 or HSV-2 333 stain and specific concentrations of the test compound in 200 μL of serum-free EMEM were mixed and incubated at 37° C. for 15 min. The mixtures were diluted to the non-inhibitory concentrations of the test compound, and then subjected to the infectious titer determination as described under the viral plaque number-reduction assay. In case of RSV, the assay was carried out in similar manner using DMEM supplemented with 2% heat-inactivated fetal calf serum instead of EMEM. To evaluate the effect of a low pH value or the presence of cervical secretions; the virus (HSV-2 333) and compounds were diluted in a low pH buffer (4.5) or cervical secretions were added to the compound dilutions before mixing with the virus (HSV-2 333). The cervical secretions were prepared from cervical swabs generated from 3 different individuals. The swabs were rinsed with distilled water and centrifuged at 5000×g for 10 min. The supernatant was kept at −20° C. In the case of RSV, the assay was carried out in a similar manner using DMEM supplemented with 2% heat-inactivated fetal calf serum instead of EMEM.

HSV-2 [2] = assay: Virus inactivation assay, HSV-2; format: cell-based; conditions: for Virus-inactivating activity: viral plaques with compound-treated virus relative to mock-treated controls: 15 min at 37° C.
Protocol: as §3

rat aortic tissue = assay: Ex vivo angiogenic sprout assay (rat aortic angiogenesis assay); format: cell-based, Sprague Dawley rats
Protocol: Explants from rat aortas were prepared by a modification of protocols previously described^42-54. In this model, the rat aortic endothelium exposed to a three dimensional matrix of ECM-derived proteins (Matrigel™), switches to a microvascular phenotype, generating branching networks of microvessels.
Briefly, thoracic aortas were excised from 2- to 4-month old Sprague Dawley rats and trimmed of remaining fat and connective tissue. Great care was taken at every stage to reduce physical damage of the aorta. Tissue was transferred to complete EBM-2 media (Cambrex) containing 2% FCS and all Singlequots™ (Cambrex) reagents except for heparin. Meanwhile, Matrigel™ (BD Biosciences) was allowed to cool on ice and once in a liquid form, 180 μL was pipetted into 48-well tissue culture plates (Nunc). The plates were incubated at 37° C. for 30 min to allow Matrigel™ to solidify.
Aortas were prepared by cutting 1 mm ring sections and then being bisected. Aortic segments were then carefully placed on top on the Matrigel™ in the centre of each well and once orientated as required, 60 μL of extra Matrigel™ was placed on top and the plate was returned to the incubator for a further 20 min. Each well was then supplemented with 1.0 mL media in the absence (control) or presence of test compounds usually at two concentrations within the range of 1-50 μM, depending on the particular compound/experiment. Cultures were replenished as appropriate every 48 h and scoring of microvessels was carried out at various timepoints up to 8-10 days. The extent of microvessel sprouting was determined by employing a scoring system from 0-5, where 0=no microvessels to 5=diffuse angiogenesis as previously described^45. Sprouting vessels were photographed using the 4× objective with an Olympus C-7070 camera and an adaptor for the eyepiece.
In some instances, to determine the potential toxicity of compounds in this assay, the viability of the tissue was assessed by withdrawing the compound/media from the culture on day 6 or 7 and adding complete media with VEGF (typically 10 ng/mL) for up to an additional 7 days. In the absence of toxicity, the viable tissue should sprout microvessels in response to the exogenous growth factor.
The inhibitory effect of compounds of the present invention on angiogenesis was assayed using the angiogenic sprout/microvessel formation (rat aortic) assay described above. Embedding of the rat aortic tissue in Matrigel™ in the absence of any inhibitor (control) yielded extensive angiogenic sprouting (as a score of 5 indicates diffuse angiogenesis) as illustrated by FIG. 1.

Structure (SMILES) | Residual infectivity (%) RSV (RSV) [%] | Residual infectivity (%) HSV-2 (HSV-2 [1]) [%] | Cytotoxicity CC50 GMK AH1 (GMK AH1 cells) [µg/mL] | Virus-inactivating activity: viral plaques with compound-treated virus relative to mock-treated controls (HSV-1; HSV-1, 1 μg/ml) [%] | Virus-inactivating activity: viral plaques with compound-treated virus relative to mock-treated controls (HSV-1; HSV-1, 10 μg/ml) [%] | Virus-inactivating activity: viral plaques with compound-treated virus relative to mock-treated controls (HSV-1; HSV-1, 100 μg/ml) [%] | Virus-inactivating activity: viral plaques with compound-treated virus relative to mock-treated controls (HSV-2 [2]; HSV-2, 1 μg/ml) [%] | Virus-inactivating activity: viral plaques with compound-treated virus relative to mock-treated controls (HSV-2 [2]; HSV-2, 10 μg/ml) [%] | Virus-inactivating activity: viral plaques with compound-treated virus relative to mock-treated controls (HSV-2 [2]; HSV-2, 100 μg/ml) [%] | Virus-inactivating activity in the presence of human cervical secretions: viral plaques relative to mock-treated controls (HSV-2 [2]; HSV-2, cervical secretions diluted 1:2.2, 1 μg/ml) [%] | Virus-inactivating activity in the presence of human cervical secretions: viral plaques relative to mock-treated controls (HSV-2 [2]; HSV-2, cervical secretions diluted 1:2.2, 10 μg/ml) [%] | Virus-inactivating activity in the presence of human cervical secretions: viral plaques relative to mock-treated controls (HSV-2 [2]; HSV-2, cervical secretions diluted 1:2.2, 100 μg/ml) [%] | Virus-inactivating activity at low pH: viral plaques relative to mock-treated controls (HSV-2 [2]; HSV-2, pH 4.5, 1 μg/ml) [%] | Virus-inactivating activity at low pH: viral plaques relative to mock-treated controls (HSV-2 [2]; HSV-2, pH 4.5, 10 μg/ml) [%] | Virus-inactivating activity at low pH: viral plaques relative to mock-treated controls (HSV-2 [2]; HSV-2, pH 4.5, 100 μg/ml) [%] | % Inhibition of Angiogenesis (10 μM) (rat aortic tissue; 10 μM) [%] | inhibition at 10 µM (rat aortic tissue; Rattus norvegicus) [%]
CCCCCCCCCCCCOC1OC(COS(=O)(=O)O)C(OS(=O)(=O)O)C(OS(=O)(=O)O)C1OC1OC(COS(=O)(=O)O)C(OS(=O)(=O)O)C(OC2OC(COS(=O)(=O)O)C(OS(=O)(=O)O)C(OC3OC(COS(=O)(=O)O)C(OS(=O)(=O)O)C(OC4OC(COS(=O)(=O)O)C(OS(=O)(=O)O)C(OS(=O)(=O)O)C4OS(=O)(=O)O)C3OS(=O)(=O)O)C2OS(=O)(=O)O)C1OS(=O)(=O)O [Compound 4, Dodecyl 2,3,4,6-tetra-O-sodium sulfonato-α-D-mannopyranosyl-(1→3)-2,4,6-tri-O-sodium sulfonato-α-D-mannopyranosyl-(1→3)-2,4,6-tri-O-sodium sulfonato-α-D-mannopyranosyl-(1→3)-2,4,6-tri-O-sodium sulfonato-α-D-mannopyranosyl-(1→2)-3,4,6-tri-O-sodium sulfonato-α-D-mannopyranoside] | 0 | 0.7 | >400 | 83.9 | 79.4 | 83.8 | 98.6 | 97.5 | 68.1 |  |  |  |  |  |  |  | 
CC(C)CCCC(C)C1CCC2C3CCC4CC(OC5OC(COS(=O)(=O)O)C(OS(=O)(=O)O)C(OS(=O)(=O)O)C5OC5OC(COS(=O)(=O)O)C(OS(=O)(=O)O)C(OC6OC(COS(=O)(=O)O)C(OS(=O)(=O)O)C(OC7OC(COS(=O)(=O)O)C(OS(=O)(=O)O)C(OS(=O)(=O)O)C7OS(=O)(=O)O)C6OS(=O)(=O)O)C5OS(=O)(=O)O)CCC4(C)C3CCC12C [Compound 20, 3β-Cholestanyl 2,3,4,6-tetra-O-sodium sulfonato-α-D-mannopyranosyl-(1→3)-2,4,6-tri-O-sodium sulfonato-α-D-mannopyranosyl-(1→3)-2,4,6-tri-O-sodium sulfonato-α-D-mannopyranosyl-(1→2)-3,4,6-tri-O-sodium sulfonato-α-D-mannopyranoside] | 0 | 0 | 110 | 88.6 | 0 | 0 | 120.3 | 0.3 | 0 | 82.6 | 78.5 | 0.3 | 93.7 | 6.8 | 0.0 |  | 
CC(C)CCC[C@@H](C)[C@H]1CC[C@H]2[C@@H]3CCC4CC(OCc5cn([C@@H]6O[C@H](COS(=O)(=O)[O-])[C@@H](O[C@H]7O[C@H](COS(=O)(=O)[O-])[C@@H](O[C@H]8O[C@H](COS(=O)(=O)[O-])[C@@H](OS(=O)(=O)[O-])[C@H](OS(=O)(=O)[O-])[C@H]8OS(=O)(=O)[O-])[C@H](OS(=O)(=O)[O-])[C@H]7OS(=O)(=O)[O-])[C@H](OS(=O)(=O)[O-])[C@H]6OS(=O)(=O)[O-])nn5)CC[C@]4(C)[C@H]3CC[C@]12C.[Na+].[Na+].[Na+].[Na+].[Na+].[Na+].[Na+].[Na+].[Na+].[Na+] (stereo partly drawn) [Compound 70, 4-(Cholestan-3-yl-oxymethyl)[1,2,3]triazol-1-yl 2,3,4,6-tetra-O-sodium sulfonato-α-D-glucopyranosyl-(1→4)-2,3,6-tri-O-sodium sulfonato-α-D-glucopyranosyl-(1→4)-1-deoxy-2,3,6-tri-O-sodium sulfonato-β-D-glucopyranoside] |  |  |  |  |  |  |  |  |  |  |  |  |  |  |  | 97 | 
CCCCCCCCCCCCCCCCCC(=O)NCCCO[C@@H]1O[C@H](COS(=O)(=O)[O-])[C@@H](O[C@H]2O[C@H](COS(=O)(=O)[O-])[C@@H](O[C@H]3O[C@H](COS(=O)(=O)[O-])[C@@H](O[C@H]4O[C@H](COS(=O)(=O)[O-])[C@@H](OS(=O)(=O)[O-])[C@H](OS(=O)(=O)[O-])[C@H]4OS(=O)(=O)[O-])[C@H](OS(=O)(=O)[O-])[C@H]3OS(=O)(=O)[O-])[C@H](OS(=O)(=O)[O-])[C@H]2OS(=O)(=O)[O-])[C@H](OS(=O)(=O)[O-])[C@H]1OS(=O)(=O)[O-].[Na+].[Na+].[Na+].[Na+].[Na+].[Na+].[Na+].[Na+].[Na+].[Na+].[Na+].[Na+].[Na+] [Compound 128, 3-Stearamidopropyl 2,3,4,6-tetra-O-sulfo-α-D-glucopyranosyl-(1→4)-2,3,6-tri-O-sulfo-α-D-glucopyranosyl-(1→4)-2,3,6-tri-O-sulfo-α-D-glucopyranosyl-(1→4)-2,3,6-tri-O-sulfo-β-D-glucopyranoside, tridecasodium salt] |  |  |  |  |  |  |  |  |  |  |  |  |  |  |  |  | 65
